Experiments:
Format in all cases: cell-based
[1] = tested on: MKN45; experiment: Growth inhibition of gastric cancer cells MKN45 (CCK-8); details: Homo sapiens, MKN-45, half inhibitory concentration, 72 hours
Description: (§1) Inoculate gastric cancer cells (SNU5 or MKN45) into a 96 well plate at a concentration of […], with 100 μl added to each well. Incubate for 30 minutes. Observe the cell status under a microscope. Prepare compounds, weigh a certain amount of the series compounds or reference drug cabozantinib of this patent, first prepare a high concentration mother liquor with pure DMSO, and use gradient dilution method to prepare a concentration of 200 μM, 60 μM, 20 μM, 6 μM, 2 μM, 600 nM, 200 nM, 0 nM drug solution, shake to make it fully mixed. The control group was prepared with cabozantinib using the same solvent and method.
(§2) After preparation, add 1 μl of drug solution to each well of the 96 well plate, and then add 100 μl of culture medium. Repeat each dose three times. Gently shake to allow the cells and medication to come into full contact and incubate in the incubator for 72 hours. 72 hours later, remove and color with CCK-8 reagent kit. Add 20 μl of CCK-8 reagent to each well, gently shake well, and incubate in the incubator for 1 hour. After 1 hour, remove and measure the absorbance of each well using an enzyme-linked immunosorbent assay (ELISA) reader at a wavelength of 450 nm.
(§3) According to the formula: Cell growth inhibition rate=[1−(absorbance of experimental group absorbance of culture medium control group)/(absorbance of blank control group−absorbance of culture medium control group)]×100%. It can be concluded that the compound has the ability to inhibit the growth of gastric cancer cells at the current dose and time.
(§4) Draw a graph based on the gradient of concentration and use GraphPad Prism 9 software (GraphPad Software, La Jolla, CA) to calculate the maximum inhibitory concentration (IC50) at 50%.
(§5) Referring to steps 1 and 2 of this embodiment, the inhibitory effect of the compound of the present invention on the growth of cancer cells and the degradation effect of target proteins were measured, and the following results were obtained (see Table 2 below).
(§6) The growth inhibitory effects of the compound of the present invention on tumor cell lines MKN45 and SNU5 were measured. The activity is expressed as half inhibitory concentration (C50). The results are shown in Table 2 below; When the half inhibitory concentration is less than or equal to 100 nM, the compound activity is labeled as “++++”; When the half inhibitory concentration is greater than 100 nM and less than 500 nM, the compound activity is labeled as […] and less than 1000 nM, the compound activity is labeled as “++”; When the half inhibitory concentration is greater than 1000 nM and less than 3000 nM, the compound activity is marked as “+”; When the half inhibitory concentration is greater than 3000 nM, the compound activity is marked as […]

[2] = biological target: DDR1 (Homo sapiens, UniProt Q08345); experiment: Degradation of DDR1 in tumor cell MKN45 (Western blot); parameters: The degradation activity of the compounds against DDR1 in the MKN45 cell line; endogenous in cells; host or cells: MKN45; details: MKN-45, maximum degradation percentage, MKN45 cells, 24 hours
Description: Western blot experiment: Take gastric cancer cells (MKN45) and inoculate them into a 6-well plate at a concentration of […], adding 2 ml to each well and incubating for 24 hours.
The next day, observe the cells under a microscope to confirm their status. Prepare compounds, weigh a certain amount of the series compounds or reference drug cabozantinib from this patent, first prepare a high concentration mother liquor with pure DMSO, and use gradient dilution method to prepare compound concentrations of 2 mM, 200 μM, 100 μM, 20 μM, 2 μM, 200 nM, and 0 nM. The final concentration of DMSO is 0.5%. Shake to thoroughly mix. Add 10 μl of solution to each well. After incubation for 24 hours, remove the cells and use a pipette to aspirate the suspended cells into a 1.5 ml centrifuge tube. Centrifuge at 5000 rpm for 10 minutes to precipitate the cells. Carefully remove the cell precipitate from the culture medium, add 1 ml of PBS and shake slightly. After repeated cleaning for 3 times, dry the residue. Add 150 μl of RIPA lysate pre mixed with 1% PMSF, blow to allow the lysate to fully contact the cells, and incubate on ice for 10 minutes. Centrifuge at 12000 rpm for 10 minutes, extract the supernatant, use the BCA protein quantification kit to determine and homogenize the sample loading.
Mix BCA-A in a 50:1 ratio Prepare working solution with B solution, dilute the sample by 5 times, then pipette 20 μl onto a 96 well ELISA plate. Add 200 μl of pre mixed BCA working solution and incubate at 37° C. for 20 minutes. Measure the A562 nm absorbance value using an ELISA reader and substitute it into the protein standard curve formula to obtain the sample concentration. After calculating the required volume for loading […] of sample, divide the sample into 1.5 ml centrifuge tubes. Add 10 μl of sample buffer to each tube and mix well. Heat in a 95° C. metal bath for 5 minutes to denature the protein.
Take 4-20% gradient pre adhesive and fix it on the adhesive rack. Add electrophoresis solution to the slot and remove the comb, Marker and protein samples were loaded, and after 30 minutes of electrophoresis at 80V, the voltage was adjusted to 120V for electrophoresis, The marker band stops electrophoresis at the forefront of the gel. Take out the adhesive block and cut it to the appropriate size, The PVDF membrane was cut and activated in methanol, and after activation, the PVDF membrane was equilibrated in a membrane transfer equilibrium solution for 1 minute. Using sponge pads The sequence of PVDF film, adhesive, and sponge pad is placed in the splint and placed in the eBlot equipment for rapid wet rotation. Remove the membrane and seal it in 5% skim milk powder dissolved in 1×TBST for 1 hour. Cut the membrane according to the molecular weight of the target protein and internal reference protein, and place it in primary antibody diluted with 1×TBST. Shake overnight at 4° C.
The next day, transfer the band to 1×TBST for 3 washes, then add a specific dilution of the secondary antibody and shake it for 1.5 hours. Transfer the band again to 1×TBST for 3 washes, prepare ECL color solution, place the membrane in the imaging system, cover the surface with ECL color solution, and take photos of the membrane using the imaging system.
Using the SHST analysis system to analyze the results, measure the grayscale values of each band of the target protein and internal reference protein. Normalize the grayscale values of the target protein/corresponding lane GAPDH grayscale values, and perform quantitative analysis according to the protein amount=experimental group grayscale value/blank control group grayscale value.
The activity of the compound of the present invention in degrading DDR in tumor cell line MKN45 was measured. […]

[3] = tested on: SNU5; experiment: Growth inhibition of gastric cancer cells SNU5 (CCK-8); details: Homo sapiens, SNU-5, half inhibitory concentration, 72 hours
Description: as §1, §2, §3, §4, §5, §6

Sequence of DDR1 (Q08345 19-913): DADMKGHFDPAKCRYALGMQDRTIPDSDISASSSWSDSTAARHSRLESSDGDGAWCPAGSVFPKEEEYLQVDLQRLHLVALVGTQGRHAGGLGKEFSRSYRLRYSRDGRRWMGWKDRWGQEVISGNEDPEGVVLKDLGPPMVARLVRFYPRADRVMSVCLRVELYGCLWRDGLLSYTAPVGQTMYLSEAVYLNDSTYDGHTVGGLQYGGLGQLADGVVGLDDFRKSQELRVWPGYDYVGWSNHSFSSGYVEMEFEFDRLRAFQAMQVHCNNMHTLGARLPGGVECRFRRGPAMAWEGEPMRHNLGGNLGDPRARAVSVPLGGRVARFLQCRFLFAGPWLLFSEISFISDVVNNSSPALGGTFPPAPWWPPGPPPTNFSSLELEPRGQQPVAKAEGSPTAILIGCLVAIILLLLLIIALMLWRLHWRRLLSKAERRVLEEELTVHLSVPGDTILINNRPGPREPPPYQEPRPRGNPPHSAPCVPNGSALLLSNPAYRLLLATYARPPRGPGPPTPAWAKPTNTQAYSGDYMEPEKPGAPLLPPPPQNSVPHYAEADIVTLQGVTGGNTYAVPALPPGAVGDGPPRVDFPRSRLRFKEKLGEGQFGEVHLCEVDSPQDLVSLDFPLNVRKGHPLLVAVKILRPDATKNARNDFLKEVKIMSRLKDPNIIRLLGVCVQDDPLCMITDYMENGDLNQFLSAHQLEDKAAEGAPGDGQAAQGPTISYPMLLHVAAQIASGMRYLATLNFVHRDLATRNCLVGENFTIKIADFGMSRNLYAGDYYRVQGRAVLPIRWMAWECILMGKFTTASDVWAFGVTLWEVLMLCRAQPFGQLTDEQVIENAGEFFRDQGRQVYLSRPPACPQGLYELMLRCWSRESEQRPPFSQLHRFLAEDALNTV

| SMILES | IC50 [1] | Dmax [2] | IC50 [3] |
| --- | --- | --- | --- |
| COc1cc2c(Oc3ccc(NC(=O)C4(C(=O)Nc5ccc(F)cc5)CC4)cc3)ccnc2cc1N1CCC(CN2C3CC2CN(CCC=Cc2cc4c(cn2)C(=O)N(C2CCC(=O)NC2=O)C4)C3)CC1 (stereo not drawn) [TPD12238] | ≤ 0.1 µM | 65 to 75% | ≤ 0.1 µM |
| O=C1CCC(N2Cc3cc(NC(=O)CCN4CC5CC(C4)N5CC4CCN(c5cc6nccc(Oc7ccc(NC(=O)C8(C(=O)Nc9ccc(F)cc9)CC8)cc7)c6cc5F)CC4)ccc3C2=O)C(=O)N1 (stereo not drawn) [TPD12215] | ≤ 0.1 µM | 75 to 85% | ≤ 0.1 µM |
| COc1cc2c(Oc3ccc(NC(=O)C4(C(=O)Nc5ccc(F)cc5)CC4)cc3)ccnc2cc1N1CCC(C(=O)N2CCC(C(=O)N[C@H](C(=O)N3C[C@H](O)C[C@H]3C(=O)NCc3ccc(-c4scnc4C)cc3)C(C)(C)C)CC2)CC1 [TPD5436] | 0.1 to 0.5 µM | 65 to 75% | 0.1 to 0.5 µM |
| Cc1nc(CCOC2CCN(CCC(=O)Nc3cccc4c3CN(C3CCC(=O)NC3=O)C4=O)CC2)cc(Nc2ncc(C(=O)Nc3c(C)cccc3Cl)s2)n1 (stereo not drawn) [TPD10050] | 0.5 to 1 µM | 75 to 85% | 0.1 to 0.5 µM |
| COc1cc2c(Oc3ccc(NC(=O)C4(C(=O)Nc5ccc(F)cc5)CC4)cc3)ccnc2cc1COCCN1CCN(C(=O)CNc2cccc3c2C(=O)N(C2CCC(=O)NC2=O)C3=O)CC1 (stereo not drawn) [TPD5317] | 0.1 to 0.5 µM | 65 to 75% | 0.1 to 0.5 µM |
| O=C1CCC(N2Cc3cc(NC(=O)CCN4CC5CC(C4)N5CC4CCN(c5cc6nccc(Oc7ccc(NC(=O)C8(C(=O)Nc9ccc(F)cc9)CC8)cc7)c6cc5F)CC4)ncc3C2=O)C(=O)N1 (stereo not drawn) [TPD12162] | ≤ 0.1 µM | 65 to 75% | ≤ 0.1 µM |
| COc1cc2c(Oc3ccc(NC(=O)C4(C(=O)Nc5ccc(F)cc5)CC4)cc3)ccnc2cc1N1CCC(C(=O)N[C@H](C(=O)N2C[C@H](O)C[C@H]2C(=O)NCc2ccc(-c3scnc3C)cc2)C(C)(C)C)CC1 [TPD5409] | 0.1 to 0.5 µM | 65 to 75% | 0.1 to 0.5 µM |
| COc1cc2c(Oc3ccc(NC(=O)C4(C(=O)Nc5ccc(F)cc5)CC4)cc3)ccnc2cc1N1CCC(CN2C[C@H]3C[C@@H]2CN3CC(=O)Nc2cc3c(cn2)C(=O)N(C2CCC(=O)NC2=O)C3)CC1 (stereo partly drawn) [TPD12101] | ≤ 0.1 µM | > 85% | ≤ 0.1 µM |
| O=C1CCC(N2Cc3cc(NC(=O)CN4C[C@@H]5C[C@H]4CN5CC4CCN(c5cc6nccc(Oc7ccc(NC(=O)C8(C(=O)Nc9ccc(F)cc9)CC8)cc7)c6cc5F)CC4)ncc3C2=O)C(=O)N1 (stereo partly drawn) [TPD12102] | ≤ 0.1 µM | 75 to 85% | ≤ 0.1 µM |
| COc1cc2c(Oc3ccc(NC(=O)C4(C(=O)Nc5ccc(F)cc5)CC4)cc3)ccnc2cc1N1CCC(CN2C3CC2CN(CCC#Cc2cccc4c2CN(C2CCC(=O)NC2=O)C4=O)C3)CC1 (stereo not drawn) [TPD12234] | ≤ 0.1 µM | 75 to 85% | ≤ 0.1 µM |
| C[C@@H](Oc1cc(-c2cnn(C3CCN(CCC(=O)Nc4cccc5c4CN(C4CCC(=O)NC4=O)C5=O)CC3)c2)cnc1N)c1c(Cl)ccc(F)c1Cl (stereo partly drawn) [TPD10040] | ≤ 0.1 µM | 75 to 85% | ≤ 0.1 µM |
| COc1cc2c(Oc3ccc(NC(=O)C4(C(=O)Nc5ccc(F)cc5)CC4)cc3)ccnc2c(F)c1N1CCC(CN2C3CC2CN(CCC(=O)Nc2cccc4c2CN(C2CCC(=O)NC2=O)C4=O)C3)CC1 (stereo not drawn) [TPD12140] | ≤ 0.1 µM | 65 to 75% | ≤ 0.1 µM |
| COc1cc2c(Oc3ccc(NC(=O)C4(C(=O)Nc5ccc(F)cc5)CC4)cc3)ccnc2cc1N1CCC(CN2C3CC2CN(CCC(=O)Nc2cc4c(cn2)C(=O)N(C2CCC(=O)NC2=O)C4)C3)CC1 (stereo not drawn) [TPD12112] | ≤ 0.1 µM | 65 to 75% | ≤ 0.1 µM |
| COc1cc2c(Oc3ccc(NC(=O)C4(C(=O)Nc5ccc(F)cc5)CC4)cc3)ccnc2cc1N1CCC(CN2CCN(CCCc3cccc4c3CN(C3CCC(=O)NC3=O)C4=O)CC2)CC1 (stereo not drawn) [TPD5937] | ≤ 0.1 µM | 65 to 75% | ≤ 0.1 µM |
| COc1cc2c(Oc3ccc(NC(=O)C4(C(=O)Nc5ccc(F)cc5)CC4)cc3)ccnc2cc1NC(=O)CCN1CCC(CN2CCN(c3ccc4c(c3)C(=O)N(C3CCC(=O)NC3=O)C4=O)CC2)CC1 (stereo not drawn) [TPD5734] | 0.1 to 0.5 µM | 65 to 75% | 0.1 to 0.5 µM |

— patent US20240374738A1, “BIFUNCTIONAL COMPOUND CAPABLE OF DEGRADING RECEPTOR TYROSINE KINASE AND APPLICATION THEREOF” (TAIBIDI PHARMACEUTICAL TECHNOLOGY (SHIJIAZHUANG) CO., LTD., priority 2023, published 2024)
